One assay addresses T1, bovine lung SSAO (Bos taurus, UniProt Q9TTK6).
T1 construct: and bovine lung SSAO by compounds of the invention; from tissue; host or cells: bovine lung
T1 sequence (Q9TTK6 1-763): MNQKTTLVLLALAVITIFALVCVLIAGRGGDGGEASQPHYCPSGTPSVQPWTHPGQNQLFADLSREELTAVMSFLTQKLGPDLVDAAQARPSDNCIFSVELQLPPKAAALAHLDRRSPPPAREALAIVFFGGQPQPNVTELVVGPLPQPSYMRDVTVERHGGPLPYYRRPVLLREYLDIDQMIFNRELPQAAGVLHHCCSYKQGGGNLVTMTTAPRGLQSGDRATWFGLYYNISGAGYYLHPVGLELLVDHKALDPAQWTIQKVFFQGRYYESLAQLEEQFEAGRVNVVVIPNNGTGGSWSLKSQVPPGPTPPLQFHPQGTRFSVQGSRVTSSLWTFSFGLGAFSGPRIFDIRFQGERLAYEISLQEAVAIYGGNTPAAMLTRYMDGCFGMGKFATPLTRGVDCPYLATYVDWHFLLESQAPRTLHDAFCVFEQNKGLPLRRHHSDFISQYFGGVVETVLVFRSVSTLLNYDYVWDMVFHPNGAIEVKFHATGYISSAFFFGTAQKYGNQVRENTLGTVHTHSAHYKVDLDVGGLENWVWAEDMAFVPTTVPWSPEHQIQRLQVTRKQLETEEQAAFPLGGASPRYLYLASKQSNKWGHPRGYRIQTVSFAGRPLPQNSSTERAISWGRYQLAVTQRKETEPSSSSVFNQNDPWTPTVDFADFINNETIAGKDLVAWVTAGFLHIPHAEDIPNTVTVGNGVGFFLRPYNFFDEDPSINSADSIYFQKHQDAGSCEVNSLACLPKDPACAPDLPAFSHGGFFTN
The assay can be described thus: Inhibition of semicarbazide sensitive amine oxidase (SSAO), radiochemical. Particulars: bovine lung SSAO; mean ± standard error of the mean; read-out: IC50 bovineSSAO. It counts as biochemical.

Assay [1] addresses T2, ratMAO-B (Rattus norvegicus, UniProt P19643).
T2 sequence (P19643 1-520): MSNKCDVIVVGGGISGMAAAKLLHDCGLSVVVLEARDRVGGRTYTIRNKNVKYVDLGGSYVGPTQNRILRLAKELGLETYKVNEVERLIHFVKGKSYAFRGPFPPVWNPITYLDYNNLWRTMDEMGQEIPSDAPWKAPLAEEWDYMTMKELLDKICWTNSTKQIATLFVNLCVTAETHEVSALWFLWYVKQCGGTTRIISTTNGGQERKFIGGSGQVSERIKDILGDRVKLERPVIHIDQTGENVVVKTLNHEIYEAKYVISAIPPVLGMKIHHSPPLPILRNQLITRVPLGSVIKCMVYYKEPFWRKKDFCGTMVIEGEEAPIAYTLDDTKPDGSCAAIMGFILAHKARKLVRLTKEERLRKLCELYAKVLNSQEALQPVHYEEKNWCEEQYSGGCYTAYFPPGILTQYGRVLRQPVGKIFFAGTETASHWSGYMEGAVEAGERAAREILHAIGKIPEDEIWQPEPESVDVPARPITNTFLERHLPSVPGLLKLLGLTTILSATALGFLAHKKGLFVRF
The assay can be described thus: MAO-B inhibition, radiometric method of Fowler and Tipton (14C PEA). Type of assay: biochemical. Particulars: for IC50: 30 min pre-incubation at 37 °C, 20 µM PEA, mean ± standard error of the mean. Details: MAO-A and MAO-B activities were determined in rat brain homogenate; from tissue; host or cells: rat brain homogenate per the methods.

Assay [2] deals with T3, ratMAO-A (Rattus norvegicus, UniProt P21396).
T3 sequence (P21396 1-526): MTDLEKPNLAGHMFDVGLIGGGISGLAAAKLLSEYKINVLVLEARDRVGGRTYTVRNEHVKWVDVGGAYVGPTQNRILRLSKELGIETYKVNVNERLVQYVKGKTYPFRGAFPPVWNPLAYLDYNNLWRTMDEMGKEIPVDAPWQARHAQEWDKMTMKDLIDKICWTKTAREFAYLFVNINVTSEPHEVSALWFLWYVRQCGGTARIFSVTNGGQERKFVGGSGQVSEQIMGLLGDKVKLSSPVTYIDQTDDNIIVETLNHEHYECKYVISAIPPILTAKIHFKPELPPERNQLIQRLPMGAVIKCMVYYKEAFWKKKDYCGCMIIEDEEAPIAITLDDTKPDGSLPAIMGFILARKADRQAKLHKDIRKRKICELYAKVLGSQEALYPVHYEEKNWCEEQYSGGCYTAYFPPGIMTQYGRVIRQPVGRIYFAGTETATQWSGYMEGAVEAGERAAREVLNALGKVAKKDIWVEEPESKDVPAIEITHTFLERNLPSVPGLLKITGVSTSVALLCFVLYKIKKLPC
As to the kind of experiment: MAO-A inhibition, radiometric method of Fowler and Tipton (14C 5-HT). Type of assay: biochemical. Details: MAO-A and MAO-B activities were determined in rat brain homogenate; from tissue; host or cells: rat brain homogenate per the methods. As to conditions: 30 min pre-incubation at 37 °C; 100µM 5-HT; mean ± standard error of the mean.

The target of assay [3] is T4, equine serum butyrylcholinesterase (eqBuChE) (Equus caballus, UniProt P81908). As to the kind of experiment: biochemical. It counts as biochemical.
Assay [4] addresses T5, electrophorus electricus acetylcholinesterase (eeAChE) (Electrophorus electricus, UniProt O42275). As to the kind of experiment: biochemical. Particulars: 20 minutes incubation at 37°C; mean ± standard error of the mean; read-out: IC50 EeAChE. It counts as biochemical.
Assay [5] deals with T4, equine serum butyrylcholinesterase (eqBuChE). As to conditions: reference value, footnote (a) Zheng et al. 2010; cited from earlier work.
In assay [6] the target is T3, ratMAO-A. Also on record: MAO-A and MAO-B activities were determined in rat brain homogenate; from tissue; host or cells: rat brain homogenate per the methods. As to conditions: reference value, footnote (a) Zheng et al. 2010; cited from earlier work.
Assay [7] deals with T2, ratMAO-B. Also on record: MAO-A and MAO-B activities were determined in rat brain homogenate; from tissue; host or cells: rat brain homogenate per the methods. Particulars: reference value, footnote (a) Zheng et al. 2010; cited from earlier work.
Assay [8] addresses T5, electrophorus electricus acetylcholinesterase (eeAChE). As to conditions: reference value, footnote (a) Zheng et al. 2010; cited from earlier work.
Setting [9] is: 20 minutes incubation at 37°C, mean ± standard error of the mean, read-out: IC50 eqBuChE.

Read-outs that look alike come from different tables or passages of the source.

T5 sequence (O42275 24-633): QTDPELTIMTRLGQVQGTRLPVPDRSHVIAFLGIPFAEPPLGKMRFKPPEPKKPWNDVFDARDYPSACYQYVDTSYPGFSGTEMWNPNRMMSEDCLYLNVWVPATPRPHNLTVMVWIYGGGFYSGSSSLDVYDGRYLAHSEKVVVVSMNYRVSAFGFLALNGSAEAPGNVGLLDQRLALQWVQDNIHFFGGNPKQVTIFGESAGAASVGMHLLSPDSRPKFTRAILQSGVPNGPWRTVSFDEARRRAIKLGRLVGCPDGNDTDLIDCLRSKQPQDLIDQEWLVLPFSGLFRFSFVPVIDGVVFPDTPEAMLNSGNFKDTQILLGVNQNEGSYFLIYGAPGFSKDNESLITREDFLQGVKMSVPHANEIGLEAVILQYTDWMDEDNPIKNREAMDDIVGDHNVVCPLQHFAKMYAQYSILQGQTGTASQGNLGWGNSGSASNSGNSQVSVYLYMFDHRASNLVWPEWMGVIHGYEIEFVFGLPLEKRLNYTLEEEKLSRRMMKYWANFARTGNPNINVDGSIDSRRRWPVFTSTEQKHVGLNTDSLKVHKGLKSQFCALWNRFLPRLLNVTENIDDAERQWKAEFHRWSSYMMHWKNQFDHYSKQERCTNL
T4 sequence (P81908 whole entry): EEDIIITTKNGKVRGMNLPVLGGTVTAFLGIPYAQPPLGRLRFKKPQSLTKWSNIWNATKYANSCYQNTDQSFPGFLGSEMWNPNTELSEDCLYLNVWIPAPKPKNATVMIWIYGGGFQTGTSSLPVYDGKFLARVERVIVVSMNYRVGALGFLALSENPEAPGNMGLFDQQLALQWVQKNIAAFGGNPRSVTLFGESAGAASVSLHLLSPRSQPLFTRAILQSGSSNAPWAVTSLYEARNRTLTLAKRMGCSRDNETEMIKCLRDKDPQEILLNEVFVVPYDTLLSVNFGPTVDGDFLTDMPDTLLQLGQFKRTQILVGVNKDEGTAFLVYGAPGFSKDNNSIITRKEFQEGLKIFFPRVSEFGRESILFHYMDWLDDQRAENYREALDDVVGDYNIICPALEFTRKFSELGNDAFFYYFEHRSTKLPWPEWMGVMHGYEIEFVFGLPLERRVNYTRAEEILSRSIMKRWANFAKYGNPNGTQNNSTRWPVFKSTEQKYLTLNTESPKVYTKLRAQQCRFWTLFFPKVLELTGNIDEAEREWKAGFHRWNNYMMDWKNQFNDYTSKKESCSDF

The term IC50 denotes the midpoint of a concentration-inhibition curve. `C#CCN(Cc1ccc(O)c2ncccc12)C(C#N)C1CCN(Cc2ccccc2)CC1` (centres unmarked) [Compound 2, 2-(1-benzylpiperidin-4-yl)-2-(((8-hydroxyquinolin-5-yl)methyl)(prop-2-ynyl)amino)acetonitrile]: the IC50 is 18 ± 5 µM at bovine lung SSAO; 39.5 ± 1.4 µM against ratMAO-B [1]; 22.1 ± 0.7 µM against ratMAO-A [2]; 13.5 ± 1.8 µM in assay [3] (setting [9]); 14.5 ± 3.7 µM in assay [4]. The “MAO-B/ MAO-A” value on ratMAO-B [1] was determined as 1.7. In addition, in assay [3] (ratio of IC50 values), the “BuChE/ AChE” value amounted to 0.92.

As to `C#CCN(Cc1ccc(O)c2ncccc12)CC1CCN(Cc2ccccc2)CC1` [Compound 3, 5-((((1-benzylpiperidin-4-yl)methyl)(prop-2-ynyl)amino)methyl)quinolin-8-ol], the IC50 at bovine lung SSAO is no less than 100 µM; at ratMAO-B [1] it was 19.4 ± 3.2 µM; against ratMAO-A [2], 85.4 ± 3.7 µM; in assay [3] (setting [9]), 12.8 ± 1.4 µM; in assay [4], 17 ± 4.7 µM. In addition, the “MAO-B/ MAO-A” value on ratMAO-B [1] (ratio of IC50 values) stood at 0.22. Moreover, the “BuChE/ AChE” value in assay [3] (ratio of IC50 values) was determined as 0.75.

As for `C#CCN(Cc1ccc(O)c2ncccc12)C(C#N)CC1CCN(Cc2ccccc2)CC1` (centres unmarked) [Compound 4, 3-(1-benzylpiperidin-4-yl)-2-(((8-hydroxyquinolin-5-yl)methyl)(prop-2-ynyl)amino)propanenitrile], the IC50 stood at 2.79 ± 0.7 µM on bovine lung SSAO; 12.4 ± 2.5 µM at ratMAO-B [1]; 9.67 ± 1.5 µM on ratMAO-A [2]; 6.06 ± 0.6 µM in assay [3]; 5.53 ± 0.5 µM in assay [4]. Also, the “MAO-B/ MAO-A” value on ratMAO-B [1] was found to be 1.2. Also, in [3], the “BuChE/ AChE” value amounted to 1.1.

Take `C#CCN(CCC1CCN(Cc2ccccc2)CC1)Cc1ccc(O)c2ncccc12` [Compound 5, 5-(((2-(1-benzylpiperidin-4-yl)ethyl)(prop-2-ynyl)amino)methyl)quinolin-8-ol]: the IC50 at bovine lung SSAO was 39.7 ± 16 µM; against ratMAO-B [1], 50.08 ± 0.5 µM; against ratMAO-A [2], no less than 100 µM; in assay [3] (setting [9]) it was 14.5 ± 3.6 µM; in assay [4], 5.01 ± 0.8 µM. For the same molecule, the “MAO-B/ MAO-A” value at ratMAO-B [1] (ratio of IC50 values) is reported as no less than 0.5. Also, the “BuChE/ AChE” value in [3] (ratio of IC50 values) was 2.8.

Regarding `C#CCN(CCCC1CCN(Cc2ccccc2)CC1)Cc1ccc(O)c2ncccc12` [Compound 7, 5-(((3-(1-benzylpiperidin-4-yl)propyl)(prop-2-ynyl)amino)methyl)quinolin-8-ol], the concentration for half-maximal inhibition (IC50) on bovine lung SSAO is 61.1 ± 21.4 µM; against ratMAO-B [1] it was 34.5 ± 3.5 µM; against ratMAO-A [2] it was no less than 100 µM; in assay [3] (setting [9]) it was 4.52 ± 0.3 µM; in assay [4] it was 2.67 ± 0.4 µM. In addition, the “MAO-B/ MAO-A” value on ratMAO-B [1] (ratio of IC50 values) is on record as no less than 0.34. In [3] (ratio of IC50 values), the “BuChE/ AChE” value is listed as 1.6.

For `C#CCN(C)Cc1ccc(O)c2ncccc12` [Compound M-30], the “MAO-B/ MAO-A” value on ratMAO-B [1] is 1.5. The IC50 is no less than 100 µM in assay [5], 0.037 ± 0.02 µM at ratMAO-A [6], 0.057 ± 0.02 µM at ratMAO-B [7] and 114 ± 14.1 µM in [8]. The “IC50 eqBuChE” value in [5] is “inactive”.

The record behind these values is EP2727916A1, “Neuroprotective multi-target directed drugs” (Universitat Autònoma de Barcelona, priority 2012, dated 2014).
